Assay type in all cases: functional
One experiment has as its system Escherichia coli. Nature of the experiment: Compound was tested for antibacterial activity against Escherichia coli 250 UC5 using standard broth microdilution assay. (Dilution methods test growth across graded concentrations, often in twofold steps.)
The test system of another experiment is Haemophilus influenzae. The experiment in a line: Compound was tested for antibacterial activity against Haemophilus influenzae 351HT3 using standard broth microdilution assay.
Experiment [1] has as its system Streptococcus pneumoniae. The experiment in a line: Compound was tested for antibacterial activity against Streptococcus pneumoniae 030SJ1 EryRc using standard broth microdilution assay.
In a further experiment the test system is Staphylococcus aureus. The experiment in a line: Compound was tested for antibacterial activity against Staphylococcus aureus 011UC4 using standard broth microdilution assay.
For another experiment, the system named is Streptococcus pyogenes. Nature of the experiment: Compound was tested for antibacterial activity against Streptococcus pyogenes 02A1UC1 using standard broth microdilution assay.
The subject of experiment [2] is Streptococcus pneumoniae. The experiment in a line: Compound was tested for antibacterial activity against Streptococcus pneumoniae 030SJ5i EryRi using standard broth microdilution assay.
In experiment [3] the test system is Streptococcus pneumoniae. Nature of the experiment: Compound was tested for antibacterial activity against Streptococcus pneumoniae 032UC1 using standard broth microdilution assay.

Structures are written as SMILES. Converted amounts (≈) assume the structure as drawn.

For `CC[C@H]1OC(=O)[C@H](C)[C@@H](O[C@H]2C[C@@](C)(OC)[C@@H](O)[C@H](C)O2)[C@H](C)[C@@H](O[C@@H]2O[C@H](C)C[C@H](N(C)C)[C@H]2O)[C@](C)(OC)C[C@@H](C)C2=N[C@H](C)[C@@H](O2)[C@]1(C)O`, the MIC with Escherichia coli was found to be 40 µg/mL (≈ 53.7 µM); with Haemophilus influenzae it was 10 µg/mL (≈ 13.4 µM); with Streptococcus pneumoniae [1] it was 40 µg/mL (≈ 53.7 µM); against Staphylococcus aureus, 20 µg/mL (≈ 26.8 µM); against Streptococcus pyogenes, 40 µg/mL (≈ 53.7 µM); in the experiment on Streptococcus pneumoniae [2] it was 40 µg/mL (≈ 53.7 µM). For the same compound, in the experiment with Streptococcus pneumoniae [3], the MIC is 40 µg/mL (≈ 53.7 µM).
In the case of `CC[C@H]1OC(=O)[C@H](C)[C@@H](O[C@H]2C[C@@](C)(OC)[C@@H](O)[C@H](C)O2)[C@H](C)[C@@H](OC2O[C@H](C)C[C@H](N(C)C)[C@H]2O)[C@](C)(OC)C[C@@H](C)C(=O)N[C@H](C)[C@@H](O)[C@]1(C)O` (some centres not stated), the MIC in the experiment on Escherichia coli came out at 40 µg/mL (≈ 52.4 µM); in the experiment with Haemophilus influenzae, 2.5 µg/mL (≈ 3.28 µM); with Streptococcus pneumoniae [1], 40 µg/mL (≈ 52.4 µM); against Staphylococcus aureus, 1.2 µg/mL (≈ 1.57 µM); with Streptococcus pyogenes it was 0.6 µg/mL (≈ 0.786 µM); against Streptococcus pneumoniae [2], 10 µg/mL (≈ 13.1 µM). The MIC in the experiment on Streptococcus pneumoniae [3] came out at 1.2 µg/mL (≈ 1.57 µM).
Consider `CC[C@H]1OC(=O)[C@H](C)[C@@H](O[C@H]2C[C@@](C)(OC)[C@@H](O)[C@H](C)O2)[C@H](C)[C@@H](O[C@@H]2O[C@H](C)C[C@H](N(C)C)[C@H]2O)[C@](C)(OC)C[C@@H](C)CN(C)[C@H](C)[C@@H](O)[C@]1(C)O`, for which the MIC against Escherichia coli was 20 µg/mL (≈ 26.2 µM); against Haemophilus influenzae, 2.5 µg/mL (≈ 3.28 µM); in the experiment with Streptococcus pneumoniae [1], over 40 µg/mL; against Staphylococcus aureus, 1.2 µg/mL (≈ 1.57 µM); against Streptococcus pyogenes, 0.15 µg/mL (≈ 0.197 µM); against Streptococcus pneumoniae [2] it was over 40 µg/mL. Further, the MIC with Streptococcus pneumoniae [3] is 0.15 µg/mL (≈ 0.197 µM).
Turning to `CC[C@H]1OC(=O)[C@H](C)C(=O)[C@H](C)[C@@H](OC2O[C@H](C)C[C@H](N(C)C)[C@H]2O)[C@](C)(OC)C[C@@H](C)C(=O)[C@H](C)[C@H]2N(CCCCn3cnc(-c4cccnc4)c3)C(=O)O[C@]12C` (some centres not stated), the MIC against Escherichia coli is 10 µg/mL (≈ 12.3 µM); in the experiment on Haemophilus influenzae, 1.2 µg/mL (≈ 1.48 µM); in the experiment with Streptococcus pneumoniae [1], 0.02 µg/mL (≈ 0.0246 µM); in the experiment with Staphylococcus aureus it was 0.04 µg/mL (≈ 0.0493 µM); in the experiment with Streptococcus pyogenes, 0.02 µg/mL (≈ 0.0246 µM); in the experiment with Streptococcus pneumoniae [2], 0.02 µg/mL (≈ 0.0246 µM). The MIC in the experiment with Streptococcus pneumoniae [3] was found to be 0.02 µg/mL (≈ 0.0246 µM).
`CC[C@H]1OC(=O)[C@H](C)C(=O)[C@H](C)[C@@H](O[C@@H]2O[C@H](C)C[C@H](N(C)C)[C@H]2O)[C@](C)(OC)C[C@@H](C)CN(C)[C@H](C)[C@@H](O)[C@]1(C)O`: the MIC in the experiment on Escherichia coli, with Haemophilus influenzae, against Streptococcus pneumoniae [1], in the experiment on Staphylococcus aureus, against Streptococcus pyogenes and with Streptococcus pneumoniae [2] was 40 µg/mL (≈ 66.4 µM) each time. Besides, the MIC in the experiment on Streptococcus pneumoniae [3] was 40 µg/mL (≈ 66.4 µM).
Regarding `CC[C@H]1OC(=O)[C@H](C)[C@@H](O[C@H]2C[C@@](C)(OC)[C@@H](O)[C@H](C)O2)[C@H](C)[C@@H](O[C@@H]2O[C@H](C)C[C@H](N(C)C)[C@H]2O)[C@](C)(O)C[C@@H](C)CN(C)[C@H](C)[C@@H](O)[C@]1(C)O` [AZITHROMYCIN], the MIC in the experiment with Escherichia coli amounted to 20 µg/mL (≈ 26.7 µM); against Haemophilus influenzae it was 1.2 µg/mL (≈ 1.6 µM); with Streptococcus pneumoniae [1], 40 µg/mL (≈ 53.4 µM); in the experiment with Staphylococcus aureus, 0.3 µg/mL (≈ 0.401 µM); against Streptococcus pyogenes it was 0.6 µg/mL (≈ 0.801 µM); with Streptococcus pneumoniae [2] it was 40 µg/mL (≈ 53.4 µM). This compound also registered an MIC in the experiment on Streptococcus pneumoniae [3] of 0.15 µg/mL (≈ 0.2 µM).

These data come from ChEMBL document CHEMBL1130953, “Synthesis of 6-O-methyl-azithromycin and its ketolide analogue via Beckmann rearrangement of 9(E)-6-O-methyl-erythromycin oxime” (1998).
